Results on 17 molecules are retold here after publication PMC9907012, “Synthesis and characterisation of new antimalarial fluorinated triazolopyrazine compounds” (Beilstein Journal of Organic Chemistry, 2023).

What is called IC50 is the point on the concentration scale where inhibition reaches its midpoint. The melting point is the temperature, or range, at which the solid turns liquid. One may read the inhibition as the change of the read-out against control, counted positive when it falls.

Structures are written as SMILES. Like-named read-outs stand apart in the source and are kept apart here.

For data set [1], the system named is P. falciparum 3D7 (chloroquine-sensitive strain). Briefly: In vitro anti-plasmodial image-based assay, P. falciparum 3D7. Particulars: for IC50 / inhibition at 80 µM: Plasmodium falciparum, 3D7; for IC50: 72 h incubation, read-out: Pf 3D7 IC50 ± SD; for SI for 3D7: SI = HEK293 IC50/parasite IC50; for inhibition at 80 µM: top dose of 80 µM, read-out: Pf 3D7 inhibition at the top dose (no IC50 given). In kind it is cell-based, Plasmodium falciparum. As to the method:
(§1) S4: In vitro anti-plasmodial image-based assay
(§2) Plasmodium falciparum 3D7 and Dd2 parasites were cultured in RPMI1640 (Life Technologies, Camarillo, CA, USA) supplemented with 2.5 mg/mL Albumax II, 5% AB human serum, 25 mM HEPES, and 0.37mM hypoxanthine. Ring stage parasites were treated with compounds following two rounds of sorbitol synchronization, as previously described.
(§3) Following incubation of assay plates for 72 h at 37 °C, and 5% CO2 and 5% O2, parasites were stained with 2-(4-amidinophenyl)-1H-indole-6-carboxamidine (DAPI) and imaged using an Opera PhenixTM High Content Screening System (PerkinElmer, Waltham, MA, USA). Images were analysed using Harmony software (PerkinElmer, Waltham, MA, USA).
(§4) S5: In vitro cytotoxicity assay
(§5) Human embryonic kidney (HEK293) cells were maintained in DMEM (Life Technologies, Camarillo, CA, USA) containing 10% FBS (Hyclone™ ThermoFisher, Melbourne, Australia).
(§6) Cytotoxicity testing was undertaken, as previously described. In brief, 5 μL of test compound was added to the well of black/clear tissue culture-treated, 384-well plates containing 3000 adherent HEK 293 cells/well in 45 μL and incubated 72 h at 37 °C in 5% CO2.
(§7) After incubation, the supernatant was removed and replaced with 40 μL of 10% Alamar Blue per well. Plates were incubated for 5−6 h and measured for fluorescence at 530 -nm excitation and 595-nm emission. The % inhibition was calculated using 0.4% DMSO (no inhibition) and […]
(§8) IC 50 values were obtained by plotting % inhibition against log dose using GraphPad Prism v.6 (San Diego, CA, USA) nonlinear regression with a […]

The subject of data set [2] is P. falciparum Dd2 (chloroquine, pyrimethamine and mefloquine drug-resistant strain). Briefly: In vitro anti-plasmodial image-based assay, P. falciparum Dd2. The data set is classed as cell-based, Plasmodium falciparum. The following applies: for IC50 / inhibition at 80 µM: Plasmodium falciparum, DD2; for IC50: 72 h incubation, read-out: Pf Dd2 IC50 ± SD; for SI for Dd2: SI = HEK293 IC50/parasite IC50; for inhibition at 80 µM: top dose of 80 µM, read-out: Pf Dd2 inhibition at the top dose (no IC50 given). As to the method: as §1, §2, §3, §4, §5, §6, §7, §8

In data set [3] the test system is Plasmodium falciparum (Pf). Particulars: previous study; read-out: IC50 (antimalarial activity); cited from earlier work.
The mark [4] stands for this setting: values marked d are estimated IC50 as a plateau of inhibition was not reached.

Take `FC(F)Oc1ccc(-c2nnc3cncc(Cl)n23)cc1` [Compound 1]: the values for the IC50 in data set [1] (setting [4]) and in data set [2] (setting [4]) were 45.2 ± 5.42 µM and 34.5 ± 4.46 µM, respectively. Moreover, in data set [1], the “SI for 3D7” value is >2. Also, the “SI for Dd2” value in data set [2] is >2.

For the molecule `Clc1ccc(-c2nnc3cncc(Cl)n23)cc1` [Compound 2], the IC50 in data set [1] (setting [4]) is 18.9 ± 0.63 µM; in data set [2] (setting [4]), 17.1 ± 0.43 µM; in data set [3] it was 12.6 µM. The “SI for 3D7” value in data set [1] is listed as >4. For the same molecule, the “SI for Dd2” value in data set [2] is >4.

As to `N#Cc1ccc(-c2nnc3cncc(Cl)n23)cc1` [Compound 3], the values for the IC50 in data set [1] (setting [4]) and in data set [2] (setting [4]) were 35.5 ± 3.33 µM and 26.2 ± 1.01 µM, respectively. Besides, the “SI for 3D7” value in data set [1] is >2. For the same molecule, the “SI for Dd2” value in data set [2] is >3.

Consider `FC(F)Oc1ccc(-c2nnc3cncc(OCCc4ccccc4)n23)cc1` [Compound 4], for which the IC50 in data set [1] (setting [4]) was 0.24 ± 0.01 µM; in data set [2] (setting [4]), 0.26 ± 0.01 µM. Further, the “SI for 3D7” value in data set [1] is on record as >329. For the same molecule, in data set [2], the “SI for Dd2” value is >312.

Turning to `Clc1ccc(-c2nnc3cncc(OCCc4ccccc4)n23)cc1` [Compound 5, 3-(4-chlorophenyl)-5-phenethoxy-[1,2,4]triazolo[4,3-a]pyrazine], the melting point fell in the range of 131 to 132 °C. Moreover, the IC50 in data set [1] (setting [4]) is 0.2 ± 0.02 µM. Also, in data set [1], the “SI for 3D7” value is listed as >396. The IC50 in data set [2] (setting [4]) is 0.22 ± 0.01 µM. Further, the “SI for Dd2” value in data set [2] is reported as >364.

The molecule `N#Cc1ccc(-c2nnc3cncc(OCCc4ccccc4)n23)cc1` [Compound 6, 4-(5-phenethoxy-[1,2,4]triazolo[4,3-a]pyrazin-3-yl)benzonitrile] returned a melting point of 136 to 138 °C. In addition, the IC50 in data set [1] (setting [4]) was 1.15 ± 0.05 µM. The “SI for 3D7” value in data set [1] is reported as >70. Also, the IC50 in data set [2] (setting [4]) is 1.17 ± 0.09 µM. In addition, the “SI for Dd2” value in data set [2] was >68.

Turning to `CCOc1cncc2nnc(-c3ccc(OC(F)F)cc3)n12` [Compound 7, 3-(4-(difluoromethoxy)phenyl)-5-ethoxy-[1,2,4]triazolo[4,3-a]pyrazine], the inhibition at 80 µM in data set [1] and in data set [2] was < 81% in each case.

As to `CCOc1cncc2nnc(-c3ccc(Cl)cc3)n12` [Compound 8, 3-(4-chlorophenyl)-5-ethoxy-[1,2,4]triazolo[4,3-a]pyrazine], the IC50 is 2.72 ± 0.03 µM in data set [1] (setting [4]) and 2.91 ± 0.18 µM in data set [2] (setting [4]). In data set [1], the “SI for 3D7” value is recorded as >29. Also, the “SI for Dd2” value in data set [2] is given as >27.

With `FC(F)Oc1ccc(-c2nnc3c(C(F)(F)F)ncc(OCCc4ccccc4)n23)cc1` [Compound 10, 3-(4-(Difluoromethoxy)phenyl)-5-phenethoxy-8-(trifluoromethyl)-[1,2,4]triazolo[4,3-a]pyrazine], the IC50 in data set [1] (setting [4]) is 11.3 ± 1.45 µM; in data set [2] (setting [4]), 17.1 ± 0.71 µM. In addition, the “SI for 3D7” value in data set [1] is >7. Besides, the “SI for Dd2” value in data set [2] is >4.

As for `FC(F)Oc1ccc(-c2nnc3c(C(F)F)ncc(OCCc4ccccc4)n23)cc1` [Compound 12, 3-(4-(Difluoromethoxy)phenyl)-8-(difluoromethyl)-5-phenethoxy-[1,2,4]triazolo[4,3-a]pyrazine], the IC50 in data set [1] (setting [4]) was 16.4 ± 1.13 µM; in data set [2] (setting [4]) it was 19.6 ± 0.42 µM. In addition, the “SI for 3D7” value in data set [1] is >5. Further, the “SI for Dd2” value in data set [2] was >4.

Turning to `FC(F)(F)c1ncc(OCCc2ccccc2)n2c(-c3ccc(Cl)cc3)nnc12` [Compound 13, 3-(4-Chlorophenyl)-5-phenethoxy-8-(trifluoromethyl)-[1,2,4]triazolo[4,3-a]pyrazine], the IC50 in data set [1] (setting [4]) was 9.43 ± 0.44 µM; in data set [2] (setting [4]) it was 10.2 ± 0.75 µM. For the same molecule, in data set [1], the “SI for 3D7” value was >9. Also, the “SI for Dd2” value in data set [2] was >8.

`FC(F)c1ncc(OCCc2ccccc2)n2c(-c3ccc(Cl)cc3)nnc12` [Compound 15, 3-(4-Chlorophenyl)-8-(difluoromethyl)-5-phenethoxy-[1,2,4]triazolo[4,3-a]pyrazine]: the IC50 in data set [1] (setting [4]) was 18.8 ± 0.21 µM; in data set [2] (setting [4]) it was 14.3 ± 2.26 µM. Moreover, the “SI for 3D7” value in data set [1] is >4. In addition, the “SI for Dd2” value in data set [2] is >6.

Regarding `N#Cc1ccc(-c2nnc3c(C(F)(F)F)ncc(OCCc4ccccc4)n23)cc1` [Compound 16, 4-(5-Phenethoxy-8-(trifluoromethyl)-[1,2,4]triazolo[4,3-a]pyrazin-3-yl)benzonitrile], the IC50 is 22.5 ± 1.03 µM in data set [1] (setting [4]) and 45.1 ± 6.58 µM in data set [2] (setting [4]). Also, in data set [1], the “SI for 3D7” value is >4. In data set [2], the “SI for Dd2” value is reported as >2.

As to `CC(F)(F)c1ncc(OCCc2ccccc2)n2c(-c3ccc(C#N)cc3)nnc12` [Compound 17, 4-(8-(1,1-Difluoroethyl)-5-phenethoxy-[1,2,4]triazolo[4,3-a]pyrazin-3-yl)benzonitrile], the inhibition at 80 µM in data set [1] and in data set [2] was < 33% throughout.

`N#Cc1ccc(-c2nnc3c(C(F)F)ncc(OCCc4ccccc4)n23)cc1` [Compound 18, 4-(8-(Difluoromethyl)-5-phenethoxy-[1,2,4]triazolo[4,3-a]pyrazin-3-yl)benzonitrile] returned a melting point of 109 to 111 °C. For the same molecule, the IC50 in data set [1] (setting [4]) is 31 ± 2.37 µM. In addition, the “SI for 3D7” value in data set [1] was >3. Moreover, the IC50 in data set [2] (setting [4]) is 58.6 ± 1.68 µM. In data set [2], the “SI for Dd2” value is >1.

For `COc1ccc(C[C@H](N)C(=O)N[C@H]2[C@@H](O)[C@H](n3cnc4c(N(C)C)ncnc43)O[C@@H]2CO)cc1` [Puromycin, reference compound], the IC50 in data set [1] (controls) worked out at 0.079 ± 0.0057 µM; in data set [2] (controls), 0.102 ± 0.0095 µM. In addition, the “SI for 3D7” value in data set [1] was found to be 127. The “SI for Dd2” value in data set [2] was 98.

For the molecule `CCc1nc(N)nc(N)c1-c1ccc(Cl)cc1` [Pyrimethamine, reference compound], in data set [1] (controls), the IC50 was 0.0152 ± 0.0012 µM. In addition, the “SI for 3D7” value in data set [1] is given as >657. The inhibition at 80 µM in data set [2] is < 33%.
